From US6355799B1, “Substituted benzene compounds, process for their preparation, and herbicidal and defoliant compositions containing them” (ISK Americas Incorporated, priority 1997, dated 2002)

Columns and labels:
Assay type in all cases: in vivo
[1] = test system: redroot pigweed (Amaranthus retroflexus, AMARE); assay: Pre-emerge test, greenhouse herbicide activity screening; conditions: rating scale 0-100, 14 days after application
How it was run: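 Compounds in acetone were track-sprayed at 187 l/ha, 15–1000 g ai/ha, onto sandy loam pots. Pre-emerge seeds were sown one day before spraying, with surface watering afterwards. Post-emerge plants were at the 2–3 leaf stage and sprayed with 0.25% v/v non-ionic surfactant. Injury was rated 0–100 at 14 days.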

[2] = test system: barnyardgrass (Echinochloa crus-galli, ECHCG); assay: as above; conditions: rating scale 0-100, 14 days after application
How it was run: (§1)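 Compounds in acetone were track-sprayed at 15–1000 g ai/ha: pre-emergence onto soil sown the previous day, then top-watered to incorporate and later bottom-watered; post-emergence onto 2–3 leaf plants with 0.25% v/v surfactant, bottom-watered only. Ratings on a 0–100 phytotoxicity scale were taken at day 14.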

[3] = test system: green foxtail (Setaria viridis, SETVI); assay: as above; conditions: rating scale 0-100, 14 days after application
How it was run: as §1

[4] = test system: ivyleaf morningglory (Ipomoea hederacea, IPOHE); assay: as above; conditions: rating scale 0-100, 14 days after application
How it was run: as §1

[5] = test system: johnsongrass (Sorghum halepense, SORHA); assay: as above; conditions: rating scale 0-100, 14 days after application
How it was run: as §1

[6] = test system: lambsquarters (Chenopodium album, CHEAL); assay: as above; conditions: rating scale 0-100, 14 days after application
How it was run: as §1

[7] = test system: large crabgrass (Digitaria sanguinalis, DIGSA); assay: as above; conditions: rating scale 0-100, 14 days after application
How it was run: as §1

[8] = test system: sicklepod (Cassia obtusifolia, CASOB); assay: as above; conditions: rating scale 0-100, 14 days after application
How it was run: as §1

[9] = test system: velvetleaf (Abutilon theophrasti, ABUTH); assay: as above; conditions: rating scale 0-100, 14 days after application
How it was run: as §1

[10] = test system: field corn (Zea mays L., var. Dekalb 535, CORN); assay: Pre-emerge test, crop safety; conditions: rating scale 0-100, 14 days after application
How it was run: (§2)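 Herbicidal damage is scored 0 (none) to 100 (complete plant death) two weeks after a simulated field spray. Rates span 15–1000 g ai/ha, delivered in acetone at 187 l/ha. For post-emergence treatments, plants have 2–3 leaves and the spray carries 0.25% v/v non-ionic surfactant.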

[11] = test system: upland rice (Oryza sp., var. Tebonnet, RICE); assay: Pre-emerge test, crop safety; conditions: rating scale 0-100, 14 days after application
How it was run: as §2

[12] = test system: barnyardgrass (Echinochloa crus-galli, ECHCG); assay: Post-emerge test, greenhouse herbicide activity screening; conditions: rating scale 0-100 (0 no damage, 100 complete death), 14 days after application
How it was run: (§3)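 Compounds in acetone were track-sprayed at 15-1000 g ai/ha (187 l/ha) on sandy loam pots: pre-emerge one day after seeding, post-emerge at 2-3 leaf stage with 0.25% v/v non-ionic surfactant. Phytotoxicity was rated 14 days later on a 0 (no damage) to 100 (complete death) scale.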

[13] = test system: common ragweed (Ambrosia artemisizfolia L., AMBEL); assay: as above; conditions: rating scale 0-100 (0 no damage, 100 complete death), 14 days after application
How it was run: as §3

[14] = test system: green foxtail (Setaria viridis, SETVI); assay: as above; conditions: rating scale 0-100 (0 no damage, 100 complete death), 14 days after application
How it was run: as §3

[15] = test system: ivyleaf morningglory (Ipomoea hederacea, IPOHE); assay: as above; conditions: rating scale 0-100 (0 no damage, 100 complete death), 14 days after application
How it was run: as §3

[16] = test system: johnsongrass (Sorghum halepense, SORHA); assay: as above; conditions: rating scale 0-100 (0 no damage, 100 complete death), 14 days after application
How it was run: as §3

[17] = test system: lambsquarters (Chenopodium album, CHEAL); assay: as above; conditions: rating scale 0-100 (0 no damage, 100 complete death), 14 days after application
How it was run: as §3

[18] = test system: large crabgrass (Digitaria sanguinalis, DIGSA); assay: as above; conditions: rating scale 0-100 (0 no damage, 100 complete death), 14 days after application
How it was run: as §3

[19] = test system: redroot pigweed (Amaranthus retroflexus, AMARE); assay: as above; conditions: rating scale 0-100 (0 no damage, 100 complete death), 14 days after application
How it was run: as §3

[20] = test system: sicklepod (Cassia obtusifolia, CASOB); assay: as above; conditions: rating scale 0-100 (0 no damage, 100 complete death), 14 days after application
How it was run: as §3

[21] = test system: velvetleaf (Abutilon theophrasti, ABUTH); assay: as above; conditions: rating scale 0-100 (0 no damage, 100 complete death), 14 days after application
How it was run: as §3

[22] = test system: field corn (Zea mays L., var. Dekalb 535, CORN); assay: Post-emerge test, crop safety; conditions: rating scale 0-100 (0 no damage, 100 complete death), 14 days after application
How it was run: (§4)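 Rating: 0–100 visual injury, 14 DAA. Application: acetone, 187 l/ha, 15–1000 g ai/ha, flat-fan track sprayer with nozzle 40–45 cm above soil or canopy. Post-emerge runs used 0.25% v/v surfactant on 2–3 leaf plants.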

[23] = test system: upland rice (Oryza sp., var. Tebonnet, RICE); assay: Post-emerge test, crop safety; conditions: rating scale 0-100 (0 no damage, 100 complete death), 14 days after application
How it was run: as §4

CCCOC(=O)C(C)(Cl)Cc1c(OC)c(Cl)cc(F)c1-n1c(=O)cc(C(F)(F)F)n(C)c1=O (stereo not shown) [14-35]
Pre-emerge herbicidal activity, phytotoxicity rating AMARE ([1]; 63 g ai/ha): 100 | Pre-emerge herbicidal activity, phytotoxicity rating AMARE ([1]; 250 g ai/ha): 100 | Pre-emerge herbicidal activity, phytotoxicity rating ECHCG ([2]; 63 g ai/ha): 0 | Pre-emerge herbicidal activity, phytotoxicity rating ECHCG ([2]; 250 g ai/ha): 99 | Pre-emerge herbicidal activity, phytotoxicity rating SETVI ([3]; 63 g ai/ha): 80 | Pre-emerge herbicidal activity, phytotoxicity rating SETVI ([3]; 250 g ai/ha): 100 | Pre-emerge herbicidal activity, phytotoxicity rating IPOHE ([4]; 63 g ai/ha): 0 | Pre-emerge herbicidal activity, phytotoxicity rating IPOHE ([4]; 250 g ai/ha): 0 | Pre-emerge herbicidal activity, phytotoxicity rating SORHA ([5]; 63 g ai/ha): 0 | Pre-emerge herbicidal activity, phytotoxicity rating SORHA ([5]; 250 g ai/ha): 50 | Pre-emerge herbicidal activity, phytotoxicity rating CHEAL ([6]; 63 g ai/ha): 50 | Pre-emerge herbicidal activity, phytotoxicity rating CHEAL ([6]; 250 g ai/ha): 100 | Pre-emerge herbicidal activity, phytotoxicity rating DIGSA ([7]; 63 g ai/ha): 50 | Pre-emerge herbicidal activity, phytotoxicity rating DIGSA ([7]; 250 g ai/ha): 95 | Pre-emerge herbicidal activity, phytotoxicity rating CASOB ([8]; 63 g ai/ha): 0 | Pre-emerge herbicidal activity, phytotoxicity rating CASOB ([8]; 250 g ai/ha): 0 | Pre-emerge herbicidal activity, phytotoxicity rating ABUTH ([9]; 63 g ai/ha): 100 | Pre-emerge herbicidal activity, phytotoxicity rating ABUTH ([9]; 250 g ai/ha): 100 | Pre-emerge phytotoxicity rating, crop damage CORN ([10]; 63 g ai/ha): 0 | Pre-emerge phytotoxicity rating, crop damage CORN ([10]; 250 g ai/ha): 25 | Pre-emerge phytotoxicity rating, crop damage RICE ([11]; 63 g ai/ha): 0 | Pre-emerge phytotoxicity rating, crop damage RICE ([11]; 250 g ai/ha): 10 | Post-emerge Herbicidal Activity, phytotoxicity rating ECHCG ([12]; Rate 63 g ai/ha): 100 | Post-emerge Herbicidal Activity, phytotoxicity rating ECHCG ([12]; Rate 250 g ai/ha): 100 | Post-emerge Herbicidal Activity, phytotoxicity rating AMBEL ([13]; Rate 63 g ai/ha): 100 | Post-emerge Herbicidal Activity, phytotoxicity rating AMBEL ([13]; Rate 250 g ai/ha): 100 | Post-emerge Herbicidal Activity, phytotoxicity rating SETVI ([14]; Rate 63 g ai/ha): 50 | Post-emerge Herbicidal Activity, phytotoxicity rating SETVI ([14]; Rate 250 g ai/ha): 95 | Post-emerge Herbicidal Activity, phytotoxicity rating IPOHE ([15]; Rate 63 g ai/ha): 70 | Post-emerge Herbicidal Activity, phytotoxicity rating IPOHE ([15]; Rate 250 g ai/ha): 100 | Post-emerge Herbicidal Activity, phytotoxicity rating SORHA ([16]; Rate 63 g ai/ha): 30 | Post-emerge Herbicidal Activity, phytotoxicity rating SORHA ([16]; Rate 250 g ai/ha): 70 | Post-emerge Herbicidal Activity, phytotoxicity rating CHEAL ([17]; Rate 63 g ai/ha): 100 | Post-emerge Herbicidal Activity, phytotoxicity rating CHEAL ([17]; Rate 250 g ai/ha): 100 | Post-emerge Herbicidal Activity, phytotoxicity rating DIGSA ([18]; Rate 63 g ai/ha): 50 | Post-emerge Herbicidal Activity, phytotoxicity rating DIGSA ([18]; Rate 250 g ai/ha): 95 | Post-emerge Herbicidal Activity, phytotoxicity rating AMARE ([19]; Rate 63 g ai/ha): 100 | Post-emerge Herbicidal Activity, phytotoxicity rating AMARE ([19]; Rate 250 g ai/ha): 100 | Post-emerge Herbicidal Activity, phytotoxicity rating CASOB ([20]; Rate 63 g ai/ha): 0 | Post-emerge Herbicidal Activity, phytotoxicity rating CASOB ([20]; Rate 250 g ai/ha): 90 | Post-emerge Herbicidal Activity, phytotoxicity rating ABUTH ([21]; Rate 63 g ai/ha): 95 | Post-emerge Herbicidal Activity, phytotoxicity rating ABUTH ([21]; Rate 250 g ai/ha): 100 | Post-emerge phytotoxicity rating CORN (crop damage) ([22]; Rate 63 g ai/ha): 100 | Post-emerge phytotoxicity rating CORN (crop damage) ([22]; Rate 250 g ai/ha): 100 | Post-emerge phytotoxicity rating RICE (crop damage) ([23]; Rate 63 g ai/ha): 80 | Post-emerge phytotoxicity rating RICE (crop damage) ([23]; Rate 250 g ai/ha): 100
